# According to ChEMBL document CHEMBL4359847, “Novel N-aryl nicotinamide derivatives: Taking stock on 3,6-diazabicyclo[3.1.1]heptanes as ligands for neuronal acetylcholine receptors” (Eur J Med Chem, 2019):
# Calls of active or inactive are those of the source. The calls are words filed in the database; no cut-off is given here.
# Key:
# [1] = biological target: T1, Neuronal acetylcholine receptor; alpha3/beta4 (Homo sapiens, UniProt P30926+P32297); assay: Displacement of [3H]epibatidine from human alpha3beta4 nAChR transfected in […] cell membrane; type: cell membranes
# [2] = biological target: Neuronal acetylcholine receptor subunit alpha-7 (Rattus norvegicus, UniProt Q05941); assay: Displacement of [125I]alpha-bungarotoxin from alpha7nAChR in rat hippocampus membrane; type: cell membranes
# [3] = biological target: T2, Neuronal acetylcholine receptor; alpha4/beta2 (Homo sapiens, UniProt P17787+P43681); assay: Agonist activity at human alpha4beta2 nAChR expressed in GH4C1 cells assessed as increase in inward channel current measured after 3 to 4 days at -70 mV holding potential by patch clamp assay; type: cell-based
# Rattus norvegicus = species on record: Rattus norvegicus; assay: Selectivity index, ratio of Ki for alpha7 nAChR in rat hippocampus membrane to Ki for alpha4beta2 nAChR in rat cerebral cortex membrane; type: cell membranes
# [4] = biological target: T1, Neuronal acetylcholine receptor; alpha3/beta4; assay: Agonist activity at human alpha3beta4 nAChR expressed in GH4C1 cells assessed as increase in inward channel current measured after 3 to 4 days at -70 mV holding potential by patch clamp assay; type: cell-based
# [5] = Selectivity index, ratio of Ki for human alpha3beta4 nAChR in […] cell membrane to Ki for alpha4beta2 nAChR in rat cerebral cortex membrane; type: cell-based
# [6] = biological target: T3, Neuronal acetylcholine receptor; alpha4/beta2 (Rattus norvegicus, UniProt P09483+P12390); assay: Displacement of [3H]epibatidine from alpha4beta2 nAChR in rat cerebral cortex membrane; type: cell membranes
# [7] = biological target: T1, Neuronal acetylcholine receptor; alpha3/beta4; assay: Agonist activity at human alpha3beta4 nAChR expressed in GH4C1 cells assessed as increase in inward channel current at >1 uM measured after 3 to 4 days at -70 mV holding potential by patch clamp assay; type: cell-based
# [8] = biological target: T2, Neuronal acetylcholine receptor; alpha4/beta2; assay: Agonist activity at human alpha4beta2 nAChR expressed in GH4C1 cells assessed as increase in inward channel current measured after 3 to 4 days at -70 mV holding potential by patch clamp assay relative to acetylcholine; type: cell-based
# [9] = biological target: T1, Neuronal acetylcholine receptor; alpha3/beta4; assay: Agonist activity at human alpha3beta4 nAChR expressed in GH4C1 cells assessed as inward channel current at 0.01 to 100 uM measured after 3 to 4 days at -70 mV holding potential by patch clamp assay; type: cell-based
# [10] = biological target: T3, Neuronal acetylcholine receptor; alpha4/beta2; assay: Displacement of [3H]cytisine from alpha4beta2 nAChR in rat brain cerebral cortex membrane incubated for 75 mins by scintillation counting method; type: cell membranes
# T1 sequence (P30926 whole entry): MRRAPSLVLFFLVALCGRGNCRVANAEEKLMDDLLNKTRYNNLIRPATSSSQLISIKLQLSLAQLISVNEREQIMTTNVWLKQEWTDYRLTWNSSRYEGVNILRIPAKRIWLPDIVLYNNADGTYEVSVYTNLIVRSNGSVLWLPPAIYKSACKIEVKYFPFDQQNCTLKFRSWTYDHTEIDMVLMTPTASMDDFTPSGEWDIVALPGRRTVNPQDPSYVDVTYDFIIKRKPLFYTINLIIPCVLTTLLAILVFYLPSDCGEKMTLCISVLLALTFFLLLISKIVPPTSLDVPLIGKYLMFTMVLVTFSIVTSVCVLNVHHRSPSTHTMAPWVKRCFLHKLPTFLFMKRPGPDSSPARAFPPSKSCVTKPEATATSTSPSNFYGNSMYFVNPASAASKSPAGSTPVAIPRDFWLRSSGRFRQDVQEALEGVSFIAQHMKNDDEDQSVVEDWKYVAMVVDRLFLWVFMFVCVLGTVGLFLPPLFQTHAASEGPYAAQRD
# T1 sequence (P32297 whole entry): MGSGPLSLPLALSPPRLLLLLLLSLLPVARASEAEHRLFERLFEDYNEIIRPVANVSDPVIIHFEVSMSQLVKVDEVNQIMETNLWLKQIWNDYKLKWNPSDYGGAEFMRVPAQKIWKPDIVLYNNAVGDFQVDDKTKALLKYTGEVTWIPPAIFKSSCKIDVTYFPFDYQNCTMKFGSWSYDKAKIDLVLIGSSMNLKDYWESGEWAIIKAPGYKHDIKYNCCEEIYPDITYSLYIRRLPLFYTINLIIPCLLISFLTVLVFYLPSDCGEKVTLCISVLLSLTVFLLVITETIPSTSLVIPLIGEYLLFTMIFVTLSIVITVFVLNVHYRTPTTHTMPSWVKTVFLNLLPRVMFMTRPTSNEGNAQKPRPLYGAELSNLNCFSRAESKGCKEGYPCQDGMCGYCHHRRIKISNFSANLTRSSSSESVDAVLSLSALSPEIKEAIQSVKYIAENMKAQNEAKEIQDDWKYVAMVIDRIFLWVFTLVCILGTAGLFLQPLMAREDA
# T2 sequence (P17787 whole entry): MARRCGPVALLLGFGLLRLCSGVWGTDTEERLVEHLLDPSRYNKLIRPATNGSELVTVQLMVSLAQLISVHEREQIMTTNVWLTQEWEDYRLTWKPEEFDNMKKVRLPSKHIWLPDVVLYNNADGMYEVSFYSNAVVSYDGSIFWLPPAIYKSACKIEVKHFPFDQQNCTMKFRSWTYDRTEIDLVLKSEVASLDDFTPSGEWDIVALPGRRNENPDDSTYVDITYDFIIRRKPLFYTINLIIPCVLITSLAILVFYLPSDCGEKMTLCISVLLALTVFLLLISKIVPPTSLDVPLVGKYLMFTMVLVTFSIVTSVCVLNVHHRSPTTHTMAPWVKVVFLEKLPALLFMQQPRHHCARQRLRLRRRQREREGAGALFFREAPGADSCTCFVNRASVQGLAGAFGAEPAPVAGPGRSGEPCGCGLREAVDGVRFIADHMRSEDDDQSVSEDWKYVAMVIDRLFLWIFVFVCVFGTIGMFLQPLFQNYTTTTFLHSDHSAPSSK
# T2 sequence (P43681 whole entry): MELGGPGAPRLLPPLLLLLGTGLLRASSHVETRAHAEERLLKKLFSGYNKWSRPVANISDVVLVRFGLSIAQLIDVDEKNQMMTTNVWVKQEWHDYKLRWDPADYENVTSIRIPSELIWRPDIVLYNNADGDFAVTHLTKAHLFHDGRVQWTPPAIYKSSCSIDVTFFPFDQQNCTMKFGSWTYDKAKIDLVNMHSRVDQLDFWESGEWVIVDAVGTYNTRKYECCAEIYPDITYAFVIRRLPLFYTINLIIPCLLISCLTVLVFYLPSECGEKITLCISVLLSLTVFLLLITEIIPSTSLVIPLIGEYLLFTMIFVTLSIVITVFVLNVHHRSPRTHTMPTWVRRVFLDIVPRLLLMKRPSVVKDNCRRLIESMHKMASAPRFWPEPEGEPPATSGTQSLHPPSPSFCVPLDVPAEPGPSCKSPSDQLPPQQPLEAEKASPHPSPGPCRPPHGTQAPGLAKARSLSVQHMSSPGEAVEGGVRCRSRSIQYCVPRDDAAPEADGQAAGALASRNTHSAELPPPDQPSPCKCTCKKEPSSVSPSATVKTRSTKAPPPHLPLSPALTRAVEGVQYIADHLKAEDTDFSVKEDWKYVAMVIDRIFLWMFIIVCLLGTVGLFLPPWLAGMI
# Sequence of Neuronal acetylcholine receptor subunit alpha-7 (Q05941 whole entry): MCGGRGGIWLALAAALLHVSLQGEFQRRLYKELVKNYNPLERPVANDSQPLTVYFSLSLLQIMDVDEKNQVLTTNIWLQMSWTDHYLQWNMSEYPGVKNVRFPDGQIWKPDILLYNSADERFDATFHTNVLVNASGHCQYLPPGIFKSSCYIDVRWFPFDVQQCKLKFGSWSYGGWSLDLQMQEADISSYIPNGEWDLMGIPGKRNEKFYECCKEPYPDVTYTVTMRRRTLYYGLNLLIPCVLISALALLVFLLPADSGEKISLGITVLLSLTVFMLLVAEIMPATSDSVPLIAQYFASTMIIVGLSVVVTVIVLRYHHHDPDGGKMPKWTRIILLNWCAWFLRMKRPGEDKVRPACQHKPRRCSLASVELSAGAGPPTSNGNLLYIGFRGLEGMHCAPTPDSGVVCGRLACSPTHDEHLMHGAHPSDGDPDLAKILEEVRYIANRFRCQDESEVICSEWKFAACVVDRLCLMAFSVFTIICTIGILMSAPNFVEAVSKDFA
# T3 sequence (P09483 whole entry): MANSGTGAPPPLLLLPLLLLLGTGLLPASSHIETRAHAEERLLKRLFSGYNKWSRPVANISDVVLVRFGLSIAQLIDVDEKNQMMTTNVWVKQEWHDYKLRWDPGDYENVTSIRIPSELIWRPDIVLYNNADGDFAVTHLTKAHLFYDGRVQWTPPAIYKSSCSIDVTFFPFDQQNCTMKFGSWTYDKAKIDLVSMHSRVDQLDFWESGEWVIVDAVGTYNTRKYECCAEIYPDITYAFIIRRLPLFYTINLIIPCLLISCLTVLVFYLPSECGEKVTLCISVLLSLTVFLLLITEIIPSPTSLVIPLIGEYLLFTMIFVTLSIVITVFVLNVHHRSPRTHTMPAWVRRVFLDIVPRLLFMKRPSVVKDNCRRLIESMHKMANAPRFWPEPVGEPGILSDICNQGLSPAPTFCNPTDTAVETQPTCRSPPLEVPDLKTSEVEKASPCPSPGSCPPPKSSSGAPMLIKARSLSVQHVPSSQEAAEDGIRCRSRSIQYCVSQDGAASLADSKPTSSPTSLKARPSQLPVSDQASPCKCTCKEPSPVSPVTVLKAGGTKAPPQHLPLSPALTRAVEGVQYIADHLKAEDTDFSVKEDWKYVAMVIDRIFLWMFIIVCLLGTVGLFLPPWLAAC
# T3 sequence (P12390 whole entry): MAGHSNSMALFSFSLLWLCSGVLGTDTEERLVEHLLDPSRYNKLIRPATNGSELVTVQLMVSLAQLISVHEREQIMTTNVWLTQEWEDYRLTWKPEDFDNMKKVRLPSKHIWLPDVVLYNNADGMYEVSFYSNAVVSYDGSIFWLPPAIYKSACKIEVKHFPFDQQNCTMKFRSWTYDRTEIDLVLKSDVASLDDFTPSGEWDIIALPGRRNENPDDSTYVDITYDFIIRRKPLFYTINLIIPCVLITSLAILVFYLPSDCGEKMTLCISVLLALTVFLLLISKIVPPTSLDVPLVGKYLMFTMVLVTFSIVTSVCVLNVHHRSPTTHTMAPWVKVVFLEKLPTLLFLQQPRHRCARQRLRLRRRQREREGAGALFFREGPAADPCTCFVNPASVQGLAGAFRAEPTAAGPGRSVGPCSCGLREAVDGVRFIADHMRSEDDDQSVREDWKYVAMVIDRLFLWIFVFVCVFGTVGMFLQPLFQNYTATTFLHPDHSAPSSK
Compound,Ki [1],Ki [2],EC50 [3],Ratio Ki (Rattus norvegicus),EC50 [4],Ratio Ki [5],Ki [6],Activity [7],Imax [8],Activity [9],Ki [10]
O=C(Nc1ccc(F)cc1)c1cncc(N2CC3CC(C2)N3)c1,81 nM,33.2 µM,520 nM,3.32e+06,> 10 µM,8100,0.01 nM,Active,41%,,
O=C(Nc1ccc(F)cc1F)c1cncc(N2CC3CC(C2)N3)c1,50 nM,> 50 µM,,> 980000,,980,0.051 nM,,,,
O=C(Nc1cccc(Cl)c1)c1cncc(N2CC3CC(C2)N3)c1,59 nM,22.9 µM,1000 nM,545000,,1400,0.042 nM,,37%,inactive,
CCc1cccc(NC(=O)c2cncc(N3CC4CC(C3)N4)c2)c1,306 nM,> 50 µM,,> 38500,,235,1.3 nM,,,,
O=C(Nc1ccccc1F)c1cncc(N2CC3CC(C2)N3)c1,102 nM,3.4 µM,,10800,,324,0.315 nM,,,,
COc1cc(NC(=O)c2cncc(N3CC4CC(C3)N4)c2)cc(OC)c1,2000 nM,43.1 µM,,43800,,2030,0.985 nM,,,,
O=C(NCc1ccccc1)c1cncc(N2CC3CC(C2)N3)c1,1600 nM,1.07 µM,,594,,889,1.8 nM,,,,
COc1cccc(NC(=O)c2cncc(N3CC4CC(C3)N4)c2)c1,265 nM,> 50 µM,600 nM,> 89300,> 10 µM,473,0.56 nM,Active,38%,,
Clc1ccc(N2CC3CCC(C2)N3)cn1,,,,,,,,,,,0.95 nM
O=C(c1cncc(N2CC3CC(C2)N3)c1)N1CCCc2ccccc21,62 nM,> 50 µM,,> 255000,,316,0.196 nM,,,,
O=C(Nc1ccccc1)c1cncc(N2CC3CC(C2)N3)c1,192 nM,2.4 µM,,2180,,174,1.1 nM,,,,
O=C(Nc1ccc(Cl)cc1)c1cncc(N2CC3CC(C2)N3)c1,123 nM,13 µM,,32200,,304,0.404 nM,,,,
O=C(Nc1cccc(F)c1)c1cncc(N2CC3CC(C2)N3)c1,28 nM,27.9 µM,,634000,,636,0.044 nM,,,,
O=C(Nc1ccc(I)cc1)c1cncc(N2CC3CC(C2)N3)c1,103 nM,23.4 µM,,63900,,281,0.366 nM,,,,
O=C(Nc1ccc2c(c1)OCO2)c1cncc(N2CC3CC(C2)N3)c1,113 nM,8.4 µM,,79200,,1070,0.106 nM,,,,
COc1ccc(NC(=O)c2cncc(N3CC4CC(C3)N4)c2)cc1OC,516 nM,2.3 µM,,2780,,623,0.828 nM,,,,
O=C(c1cncc(N2CC3CC(C2)N3)c1)N1CCc2ccccc2C1,21 nM,1 µM,,32300,,677,0.031 nM,,,,
